Measured values reported in ChEMBL document CHEMBL1687747, “Effect of mild and moderate liver disease on the pharmacokinetics of isavuconazole after intravenous and oral administration of a single dose of the prodrug BAL8557” (Antimicrob Agents Chemother, 2009).

Tests used:
Settings in all cases: in vivo
[1] = tested on: Homo sapiens; assay: Cmax in healthy human plasma assessed as isavuconazole level at 180.5 mg, iv administered as single dose over 2 hrs following overnight fasting by high-pressure liquid chromatography coupled with tandem mass spectrometry by HPLC-tandem mass spectrometry; assay type: ADME, organism-based; design: dose 180.5 mg, route intravenous
[2] = tested on: Homo sapiens; assay: AUC (0 to t) in healthy human at 180.5 mg, iv administered as single dose over 2 hrs following overnight fasting by high-pressure liquid chromatography coupled with tandem mass spectrometry; assay type: ADME, organism-based, Plasma; design: time < 2 hr, dose 180.5 mg, route intravenous
[3] = tested on: Homo sapiens; assay: AUC (0 to t) in healthy human assessed as metabolite BAL8728 level at 180.5 mg, iv administered as single dose over 2 hrs following overnight fasting by high-pressure liquid chromatography coupled with tandem mass spectrometry; assay type: ADME, organism-based, Plasma; design: dose 180.5 mg, time < 2 hr, route intravenous
[4] = tested on: Homo sapiens; assay: Tmax in healthy human plasma assessed as isavuconazole level at 180.5 mg, po administered as single dose over 2 hrs following overnight fasting by high-pressure liquid chromatography coupled with tandem mass spectrometry; assay type: ADME, organism-based
[5] = tested on: Homo sapiens; assay: AUC (0 to t) in human with mild liver impairment assessed as metabolite BAL8728 level at 180.5 mg, iv administered as single dose over 2 hrs following overnight fasting by high-pressure liquid chromatography coupled with tandem mass spectrometry; assay type: ADME, organism-based; design: dose 180.5 mg, time < 2 hr, route intravenous
[6] = tested on: Homo sapiens; assay: Volume of distribution at steady state in healthy human assessed as isavuconazole level at 180.5 mg, po administered as single dose over 2 hrs following overnight fasting by high-pressure liquid chromatography coupled with tandem mass spectrometry; assay type: ADME, organism-based
[7] = tested on: Homo sapiens; assay: AUC (0 to infinity) in plasma of human with mild liver impairment assessed as isavuconazole level at 180.5 mg, iv administered as single dose over 2 hrs following overnight fasting by high-pressure liquid chromatography coupled with tandem mass spectrometry; assay type: ADME, organism-based; design: dose 180.5 mg, time infinity, route intravenous
[8] = tested on: Homo sapiens; assay: Oral clearance in plasma of human with mild liver impairment assessed as isavuconazole level at 180.5 mg, po administered as single dose over 2 hrs following overnight fasting by high-pressure liquid chromatography coupled with tandem mass spectrometry; assay type: ADME, organism-based
[9] = tested on: Homo sapiens; assay: AUC (0 to infinity) in healthy human plasma assessed as isavuconazole level at 180.5 mg, iv administered as single dose over 2 hrs following overnight fasting by high-pressure liquid chromatography coupled with tandem mass spectrometry; assay type: ADME, organism-based; design: dose 180.5 mg, time infinity, route intravenous
[10] = tested on: Homo sapiens; assay: Oral clearance in healthy human plasma assessed as isavuconazole level at 180.5 mg, po administered as single dose over 2 hrs following overnight fasting by high-pressure liquid chromatography coupled with tandem mass spectrometry; assay type: ADME, organism-based
[11] = tested on: Homo sapiens; assay: AUC (0 to infinity) in plasma of human with moderate liver impairment assessed as isavuconazole level at 180.5 mg, iv administered as single dose over 2 hrs following overnight fasting by high-pressure liquid chromatography coupled with tandem mass spectrometry; assay type: ADME, organism-based; design: dose 180.5 mg, route intravenous, time infinity
[12] = tested on: Homo sapiens; assay: Cmax in healthy human plasma assessed as isavuconazole level at 180.5 mg, po administered as single dose over 2 hrs following overnight fasting by high-pressure liquid chromatography coupled with tandem mass spectrometry by HPLC-tandem mass spectrometry; assay type: ADME, organism-based; design: dose 180.5 mg, route oral
[13] = tested on: Homo sapiens; assay: Volume of distribution at steady state in of human with mild liver impairment assessed as isavuconazole level at 180.5 mg, po administered as single dose over 2 hrs following overnight fasting by high-pressure liquid chromatography coupled with tandem mass spectrometry; assay type: ADME, organism-based
[14] = tested on: Homo sapiens; assay: Toxicity in healthy human at 180.5 mg, iv administered as single dose over 2 hrs following overnight fasting; assay type: organism-based
[15] = tested on: Homo sapiens; assay: Tmax in plasma of human with mild liver impairment assessed as isavuconazole level at 180.5 mg, po administered as single dose over 2 hrs following overnight fasting by high-pressure liquid chromatography coupled with tandem mass spectrometry; assay type: ADME, organism-based
[16] = tested on: Homo sapiens; assay: Terminal half life in human with moderate liver impairment assessed as isavuconazole level at 180.5 mg, iv administered as single dose over 2 hrs following overnight fasting by high-pressure liquid chromatography coupled with tandem mass spectrometry; assay type: ADME, organism-based
[17] = tested on: Homo sapiens; assay: Systemic clearance in plasma of human with moderate liver impairment assessed as isavuconazole level at 180.5 mg, iv administered as single dose over 2 hrs following overnight fasting by high-pressure liquid chromatography coupled with tandem mass spectrometry; assay type: ADME, organism-based
[18] = tested on: Homo sapiens; assay: Toxicity in of human with moderate liver impairment at 180.5 mg, po administered as single dose over 2 hrs following overnight fasting; assay type: organism-based
[19] = tested on: Homo sapiens; assay: Terminal half life in human with moderate liver impairment assessed as isavuconazole level at 180.5 mg, po administered as single dose over 2 hrs following overnight fasting by high-pressure liquid chromatography coupled with tandem mass spectrometry; assay type: ADME, organism-based
[20] = tested on: Homo sapiens; assay: AUC (0 to infinity) in healthy human plasma assessed as isavuconazole level at 180.5 mg, po administered as single dose over 2 hrs following overnight fasting by high-pressure liquid chromatography coupled with tandem mass spectrometry; assay type: ADME, organism-based; design: dose 180.5 mg, route oral, time infinity
[21] = tested on: Homo sapiens; assay: Terminal half life in human with mild liver impairment assessed as isavuconazole level at 180.5 mg, iv administered as single dose over 2 hrs following overnight fasting by high-pressure liquid chromatography coupled with tandem mass spectrometry; assay type: ADME, organism-based
[22] = tested on: Homo sapiens; assay: AUC (0 to infinity) in plasma of human with moderate liver impairment assessed as isavuconazole level at 180.5 mg, po administered as single dose over 2 hrs following overnight fasting by high-pressure liquid chromatography coupled with tandem mass spectrometry; assay type: ADME, organism-based; design: dose 180.5 mg, route oral, time infinity
[23] = tested on: Homo sapiens; assay: Tmax in plasma of human with moderate liver impairment assessed as isavuconazole level at 180.5 mg, po administered as single dose over 2 hrs following overnight fasting by high-pressure liquid chromatography coupled with tandem mass spectrometry; assay type: ADME, organism-based
[24] = tested on: Homo sapiens; assay: Toxicity in of human with mild liver impairment at 180.5 mg, po administered as single dose over 2 hrs following overnight fasting; assay type: organism-based
[25] = tested on: Homo sapiens; assay: Terminal half life in healthy human assessed as isavuconazole level at 180.5 mg, iv administered as single dose over 2 hrs following overnight fasting by high-pressure liquid chromatography coupled with tandem mass spectrometry; assay type: ADME, organism-based
[26] = tested on: Homo sapiens; assay: Toxicity in of human with mild liver impairment at 180.5 mg, iv administered as single dose over 2 hrs following overnight fasting; assay type: organism-based
[27] = tested on: Homo sapiens; assay: Cmax in plasma of human with mild liver impairment assessed as isavuconazole level at 180.5 mg, po administered as single dose over 2 hrs following overnight fasting by high-pressure liquid chromatography coupled with tandem mass spectrometry by HPLC-tandem mass spectrometry; assay type: ADME, organism-based; design: dose 180.5 mg, route oral
[28] = tested on: Homo sapiens; assay: Volume of distribution at steady state in of human with mild liver impairment assessed as isavuconazole level at 180.5 mg, iv administered as single dose over 2 hrs following overnight fasting by high-pressure liquid chromatography coupled with tandem mass spectrometry; assay type: ADME, organism-based
[29] = tested on: Homo sapiens; assay: Systemic clearance in plasma of human with mild liver impairment assessed as isavuconazole level at 180.5 mg, iv administered as single dose over 2 hrs following overnight fasting by high-pressure liquid chromatography coupled with tandem mass spectrometry; assay type: ADME, organism-based
[30] = tested on: Homo sapiens; assay: Terminal half life in human with mild liver impairment assessed as isavuconazole level at 180.5 mg, po administered as single dose over 2 hrs following overnight fasting by high-pressure liquid chromatography coupled with tandem mass spectrometry; assay type: ADME, organism-based
[31] = tested on: Homo sapiens; assay: Cmax in plasma of human with moderate liver impairment assessed as isavuconazole level at 180.5 mg, po administered as single dose over 2 hrs following overnight fasting by high-pressure liquid chromatography coupled with tandem mass spectrometry by HPLC-tandem mass spectrometry; assay type: ADME, organism-based; design: dose 180.5 mg, route oral
[32] = tested on: Homo sapiens; assay: Volume of distribution at steady state in of human with moderate liver impairment assessed as isavuconazole level at 180.5 mg, po administered as single dose over 2 hrs following overnight fasting by high-pressure liquid chromatography coupled with tandem mass spectrometry; assay type: ADME, organism-based
[33] = tested on: Homo sapiens; assay: Toxicity in of human with moderate liver impairment at 180.5 mg, iv administered as single dose over 2 hrs following overnight fasting; assay type: organism-based
[34] = tested on: Homo sapiens; assay: AUC (0 to t) in human with moderate liver impairment assessed as metabolite BAL8728 level at 180.5 mg, iv administered as single dose over 2 hrs following overnight fasting by high-pressure liquid chromatography coupled with tandem mass spectrometry; assay type: ADME, organism-based; design: dose 180.5 mg, time < 2 hr, route intravenous
[35] = tested on: Homo sapiens; assay: Cmax in plasma of human with moderate liver impairment assessed as isavuconazole level at 180.5 mg, iv administered as single dose over 2 hrs following overnight fasting by high-pressure liquid chromatography coupled with tandem mass spectrometry by HPLC-tandem mass spectrometry; assay type: ADME, organism-based; design: dose 180.5 mg, route intravenous
[36] = tested on: Homo sapiens; assay: Terminal half life in healthy human assessed as isavuconazole level at 180.5 mg, po administered as single dose over 2 hrs following overnight fasting by high-pressure liquid chromatography coupled with tandem mass spectrometry; assay type: ADME, organism-based
[37] = tested on: Homo sapiens; assay: Systemic clearance in healthy human plasma assessed as isavuconazole level at 180.5 mg, iv administered as single dose over 2 hrs following overnight fasting by high-pressure liquid chromatography coupled with tandem mass spectrometry; assay type: ADME, organism-based
[38] = tested on: Homo sapiens; assay: Volume of distribution at steady state in of human with moderate liver impairment assessed as isavuconazole level at 180.5 mg, iv administered as single dose over 2 hrs following overnight fasting by high-pressure liquid chromatography coupled with tandem mass spectrometry; assay type: ADME, organism-based
[39] = tested on: Homo sapiens; assay: Cmax in plasma of human with mild liver impairment assessed as isavuconazole level at 180.5 mg, iv administered as single dose over 2 hrs following overnight fasting by high-pressure liquid chromatography coupled with tandem mass spectrometry by HPLC-tandem mass spectrometry; assay type: ADME, organism-based; design: dose 180.5 mg, route intravenous
[40] = tested on: Homo sapiens; assay: Toxicity in healthy human at 180.5 mg, po administered as single dose over 2 hrs following overnight fasting; assay type: organism-based
[41] = tested on: Homo sapiens; assay: Oral clearance in plasma of human with moderate liver impairment assessed as isavuconazole level at 180.5 mg, po administered as single dose over 2 hrs following overnight fasting by high-pressure liquid chromatography coupled with tandem mass spectrometry; assay type: ADME, organism-based
[42] = tested on: Homo sapiens; assay: Volume of distribution at steady state in healthy human assessed as isavuconazole level at 180.5 mg, iv administered as single dose over 2 hrs following overnight fasting by high-pressure liquid chromatography coupled with tandem mass spectrometry; assay type: ADME, organism-based
[43] = tested on: Homo sapiens; assay: AUC (0 to t) in human with moderate liver impairment at 180.5 mg, iv administered as single dose over 2 hrs following overnight fasting by high-pressure liquid chromatography coupled with tandem mass spectrometry; assay type: ADME, organism-based; design: dose 180.5 mg, time < 2 hr, route intravenous
[44] = tested on: Homo sapiens; assay: AUC (0 to t) in human with mild liver impairment at 180.5 mg, iv administered as single dose over 2 hrs following overnight fasting by high-pressure liquid chromatography coupled with tandem mass spectrometry; assay type: ADME, organism-based; design: time < 2 hr, dose 180.5 mg, route intravenous
[45] = tested on: Homo sapiens; assay: AUC (0 to infinity) in plasma of human with mild liver impairment assessed as isavuconazole level at 180.5 mg, po administered as single dose over 2 hrs following overnight fasting by high-pressure liquid chromatography coupled with tandem mass spectrometry; assay type: ADME, organism-based; design: dose 180.5 mg, route oral, time infinity

Cmax [1]: 1090 ng/mL
AUC [2]: 0.195 µg/h/mL
AUC [3]: 0.606 µg/h/mL
Tmax [4]: 2.4 h
AUC [5]: 0.685 µg/h/mL
Vdss [6]: 475 L
AUC [7]: 72 µg/h/mL
CL [8]: 1.26 L/h
AUC [9]: 39 µg/h/mL
CL [10]: 2.38 L/h
AUC [11]: 101 µg/h/mL
Cmax [12]: 840 ng/mL
Vdss [13]: 485 L
Tmax [15]: 2.7 h
beta t1/2 [16]: 302 h
CL [17]: 1.43 L/h
beta t1/2 [19]: 240 h
AUC [20]: 45 µg/h/mL
beta t1/2 [21]: 224 h
AUC [22]: 62 µg/h/mL
Tmax [23]: 2.6 h
beta t1/2 [25]: 123 h
Cmax [27]: 730 ng/mL
Vdss [28]: 492 L
CL [29]: 1.93 L/h
beta t1/2 [30]: 292 h
Cmax [31]: 470 ng/mL
Vdss [32]: 598 L
AUC [34]: 0.583 µg/h/mL
Cmax [35]: 840 ng/mL
beta t1/2 [36]: 148 h
CL [37]: 2.73 L/h
Vdss [38]: 471 L
Cmax [39]: 980 ng/mL
CL [41]: 1.82 L/h
Vdss [42]: 422 L
AUC [43]: 0.433 µg/h/mL
AUC [44]: 0.375 µg/h/mL
AUC [45]: 98 µg/h/mL
Compound: CNCC(=O)OCc1cccnc1N(C)C(=O)OC(C)[n+]1cnn(C[C@](O)(c2cc(F)ccc2F)[C@@H](C)c2nc(-c3ccc(C#N)cc3)cs2)c1.Cl.[Cl-] (stereo not given in full)
Activity [14]: Non-toxic
Activity [18]: Non-toxic
Activity [24]: Non-toxic
Activity [26]: Non-toxic
Activity [33]: Non-toxic
Activity [40]: Non-toxic
